Changes are numbered by the printed parent chain. Where a SMILES comes first, the peptide text is derived from it. Bridges are numbered along the chain shown (N, C = ends).
Legend:
rGHBP [1] = molecular target: T1, rGHBP (Rattus norvegicus, UniProt P16310); test: Time-resolved fluorometric detection (TRFD) of specific bLigand binding to rGHBP and its competition; conditions: TRFD
T1 construct: 1–48 of GHBP; The 3′ oligo used for this reaction encoded the mutation L43R (CTG→AGA); The second PCR reaction amplified the DNA encoding amino acids 38–260; 6xHis; made in house
T1 sequence (P16310 19-278 isoform P16310-2): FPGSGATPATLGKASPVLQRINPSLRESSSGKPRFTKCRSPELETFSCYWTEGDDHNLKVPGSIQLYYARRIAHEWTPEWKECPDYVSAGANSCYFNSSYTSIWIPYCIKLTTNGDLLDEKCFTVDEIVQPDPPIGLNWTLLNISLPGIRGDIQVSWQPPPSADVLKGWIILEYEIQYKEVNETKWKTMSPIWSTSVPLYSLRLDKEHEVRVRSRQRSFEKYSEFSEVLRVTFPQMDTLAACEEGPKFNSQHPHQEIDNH
Protocol: For this invention, saEu forms a ternary complex with bP and rGHBP (i.e., the rGHBP:bP:saEu complex). As described herein, the TRFD assay is performed using biotinylated GH (bGH) as bLigand. Biotinylated H5-mutant peptides bP#447 (SEQ ID NO:11) and bP#418 (SEQ ID NO:12) are also used as bLigand (see below). The TRFD assay described herein faithfully reports the competition of ligand binding to the active site of rGHR. To perform the TRFD assays, soluble rGHBP is attached to the surface of microtiter wells, then incubated with bP. Unbound bP is than washed away and (sa)Eu is added to complex with receptor bound bP. The rGHBP:bP bound (sa)Eu is then converted into its highly fluorescent state and detected by TRFD.
Wells were coated with rGHBP(100 ng/well) overnight as described. ED50 and IC50 were calculated from analysis of specific bLigand binding to rGHBP. Competitors were added 1 hr prior to addition of bLigand as described.
rGHBP (50–200 μg/ml in 50 mM NaHCO3) was coated onto low-fluorescence MaxiSorp (Nunc) plates (100 μl/well) overnight at 4° C. The plates were blocked with PBS containing 2% non-fat milk and 0.05% BSA for 2 hr at room temperature, followed by three PBS washes. For competitions, serial dilutions of unlabelled growth hormone (0.1 nM-100 nM) or MAb 2C3 (0.67–67 nM) were added to the plates (100 μl/well) and incubated at room temperature for 1–2 hr. Biotinylated peptide or biotinylated GH (10× concentrations) were incubated in blocking buffer for 30 min to decrease non-specific binding. Ten microliters of the 10× concentrated material was added to the plates and incubated at room temperature for 1 hr to overnight.
The plates were then washed five times with Tris-buffered saline (pH 7.5) containing 0.1% Tween-20 (TTBS). To each well, 100 μl of europium-labeled streptavidin in DELFIA assay buffer (100 mM Tris-HCl, pH 7.8; 150 mM NaCl; 0.5% BSA; 0.05% bovine Ig; 0.05% NaN3; 0.01% Tween-20) was added and incubated for 1.5 hr at room temperature. The plates were then washed five times with TTBS and tapped dry. Subsequently, 100 μl of DELFIA enhancement solution (100 mM acetone-potassium hydrogen phthalate, pH 3.2; 15 mM 2-naphtyltrifluoroacetate; […] tri(n-octyl)-phosphine oxide; 0.1% Triton X-100) was added to each well, and the plates were shaken for 10 min at room temperature. Fluorescence of each sample well was measured at 615 nm using a DELFIA 1234 fluorometer (EG&G Wallac). General procedure and references as described by Wallac are available in “Lanthanide labeling for time-resolved fluorometry”: Wallac publication 1244–1126-03.

‘hu’ GHBP = molecular target: T2, ‘hu’ GHBP (Rattus norvegicus, UniProt P16310, L61R); test: Species specificity of binding by ELISA and BIAcore, 'hu' GHBP; conditions: in words
T2 construct: 1–48 of GHBP; The 3′ oligo used for this reaction encoded the mutation L43R (CTG→AGA); The second PCR reaction amplified the DNA encoding amino acids 38–260; 6xHis; made in house
T2 sequence (P16310 19-278 isoform P16310-2 L61R): T1 sequence (P16310 19-278 isoform P16310-2) with L43R
Protocol: (§1) Wells were coated with either recombinant rGHBP or ‘hu’ GHBP (100 ng/well). Additions of H5 (SEQ ID NO:8) and H10 (SEQ ID NOS:9, 80, and 81) phage (10^10/well) and detection were made as described. […] Streptavidin chips were coated with H5 (SEQ ID NO:8) to 1100 RU as described and rGHBP or ‘hu’ GHBP (500 μg/ml) injected as 30 μl samples.
(§2) Growth hormone receptors from different species bind human GH as well as their own GH, however human GHR only binds human or monkey GH. […] The sequence of rGHBP was altered by PCR to create a “humanized” version (‘hu’ GHBP; FIG. 9A). Partially purified ‘hu’GHBP (FIG. 9B) was tested for binding using ELISA and BIAcore analysis. […] This was confirmed by BIAcore analysis (FIG. 10B).
(§3) The biotinylated control peptide (SEQ ID NO:10) was immobilized onto one flow cell of a SA-5 (streptavidin coated) sensor chip to a final density of 700 RU. On a second flow cell, either hGH (1100 RU final density), H5WT peptide (SEQ ID NO:8; 1100 RU final density), or bGH (730 RU final density) was immobilized. GHBP (either rat or humanized) was injected at a concentration of 500 μg/ml with a flow rate of 5 μl/min. Background binding to the control surface was subtracted prior to further analysis.

rGHBP [2] = molecular target: T1, rGHBP; test: Species specificity of binding by ELISA and BIAcore, rGHBP; conditions: in words
Protocol: as §1, §2, §3

saturation of receptors (rGHBP [1]): could not be saturated | binding to ‘hu’ GHBP (‘hu’ GHBP): not ‘hu’GHBP | binding to rGHBP (rGHBP [2]): bound to rGHBP
Structure (SMILES): CC(C)C[C@@H]1NC(=O)[C@H](CO)NC(=O)[C@H](CCC(N)=O)NC(=O)[C@@H](NC(=O)[C@H](CC(C)C)NC(=O)[C@H](CC(=O)O)NC(=O)[C@H](CCCCN)NC(=O)[C@H](Cc2ccc(O)cc2)NC(=O)[C@@H](N)CC(=O)O)CSSC[C@@H](C(=O)N[C@@H](C)C(=O)N[C@@H](CCCCN)C(=O)N[C@@H](CCCCN)C(=O)O)NC(=O)[C@H](Cc2c[nH]c3ccccc23)NC(=O)CNC(=O)[C@H](C)NC(=O)[C@H](CC(C)C)NC(=O)[C@H](Cc2c[nH]c3ccccc23)NC(=O)CNC(=O)[C@@H]2CCCN2C(=O)[C@H](Cc2ccc(O)cc2)NC(=O)[C@H]([C@@H](C)O)NC(=O)[C@H](C(C)C)NC(=O)CNC1=O [H5] (H-DYKDLCQSLGVTYPGWLAGWCAKK-OH; disulfide 6-21; N-terminus and C-terminus assumed)
